Data reported in PubChem BioAssay AID248 (DTP/NCI, 2004).
Inconclusive results and toxic doses are left out. No stated cut-off is given here; in the data, active means T/C of 150% or more; inactive means T/C below 125%.

System: L1210 leukemia ip in BDF1 mice, survival T/C
Test: NCI In Vivo Anticancer Drug Screen. Data for tumor model L1210 Leukemia (intraperitoneal) in B6D2F1 (BDF1) mice
Conditions: higher = longer survival
Method in brief: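 Tumor cells were implanted, animals were treated, and survival was followed. The result divides the treated measurement by the vehicle-control measurement.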

[1] = endpoint: mean survival time, dose: 100.0 mg/kg/injection, schedule: Q01DX001 (ip), vehicle: saline with Tween-80
[2] = endpoint: mean survival time, dose: 200.0 mg/kg/injection, schedule: Q01DX001 (ip), vehicle: saline with Tween-80
[3] = endpoint: mean survival time, dose: 400.0 mg/kg/injection, schedule: Q01DX001 (ip), vehicle: saline with Tween-80
[4] = endpoint: mean survival time, dose: 50.0 mg/kg/injection, schedule: Q01DX001 (ip), vehicle: saline
[5] = endpoint: mean survival time, dose: 100.0 mg/kg/injection, schedule: Q01DX001 (ip), vehicle: saline
[6] = endpoint: mean survival time, dose: 200.0 mg/kg/injection, schedule: Q01DX001 (ip), vehicle: saline
[7] = endpoint: mean survival time, dose: 100.0 mg/kg/injection, schedule: Q04DX003 (ip), vehicle: Klucel (hydroxypropylcellulose) (HPC)
[8] = endpoint: mean survival time, dose: 200.0 mg/kg/injection, schedule: Q04DX003 (ip), vehicle: Klucel (hydroxypropylcellulose) (HPC)
[9] = endpoint: mean survival time, dose: 400.0 mg/kg/injection, schedule: Q04DX003 (ip), vehicle: Klucel (hydroxypropylcellulose) (HPC)
[10] = endpoint: mean survival time, dose: 100.0 mg/kg/injection, schedule: Q04DX002 (ip), vehicle: Klucel (hydroxypropylcellulose) (HPC)
[11] = endpoint: mean survival time, dose: 200.0 mg/kg/injection, schedule: Q04DX002 (ip), vehicle: Klucel (hydroxypropylcellulose) (HPC)
[12] = endpoint: mean survival time, dose: 100.0 mg/kg/injection, schedule: Q04DX002 (ip), vehicle: saline
[13] = endpoint: mean survival time, dose: 200.0 mg/kg/injection, schedule: Q04DX002 (ip), vehicle: saline

Measured: T/C

O=C(O)Cc1ccc(Cl)cc1
inactive: endpoint: mean survival time, dose: 75.0 mg/kg/injection, schedule: Q04DX003 (ip), vehicle: saline with Tween-80 93 % of control | [1] 98 % of control | endpoint: mean survival time, dose: 150.0 mg/kg/injection, schedule: Q04DX003 (ip), vehicle: saline with Tween-80 96 % of control | [2] 95 % of control | endpoint: mean survival time, dose: 300.0 mg/kg/injection, schedule: Q04DX003 (ip), vehicle: saline with Tween-80 87 % of control | [3] 91 % of control

CCOC(=O)C(N)CCl (centres undefined)
inactive: endpoint: mean survival time, dose: 6.25 mg/kg/injection, schedule: Q01DX001 (ip), vehicle: saline 100 % of control | endpoint: mean survival time, dose: 12.5 mg/kg/injection, schedule: Q01DX001 (ip), vehicle: saline 101 % of control | endpoint: mean survival time, dose: 25.0 mg/kg/injection, schedule: Q01DX001 (ip), vehicle: saline 101 % of control | [4] 99 % of control | [5] 97 % of control | [6] 95 % of control

O=C(Nc1ccc(C2=NCCN2)c(Cl)c1)c1ccc(C(=O)Nc2ccc(C3=NCCN3)c(Cl)c2)cc1
inactive: endpoint: mean survival time, dose: 1.87 mg/kg/injection, schedule: Q01DX Z (ip), vehicle: carboxymethylcellulose (CMC) 124 % of control | endpoint: mean survival time, dose: 3.75 mg/kg/injection, schedule: Q01DX Z (ip), vehicle: carboxymethylcellulose (CMC) 124 % of control | endpoint: mean survival time, dose: 7.5 mg/kg/injection, schedule: Q01DX Z (ip), vehicle: carboxymethylcellulose (CMC) 117 % of control | endpoint: mean survival time, dose: 30.0 mg/kg/injection, schedule: Q01DX Z (ip), vehicle: carboxymethylcellulose (CMC) 120 % of control | endpoint: mean survival time, dose: 120.0 mg/kg/injection, schedule: Q01DX Z (ip), vehicle: carboxymethylcellulose (CMC) 86 % of control

CCN(c1ccc2c(c1)C(=O)c1ccccc1-2)S(=O)(=O)c1ccc(C)cc1
inactive: [7] 96 % of control | [8] 98 % of control | [9] 98 % of control

CC(O)(C(F)(F)F)C(C)(O)C(F)(F)F (centres undefined)
inactive: endpoint: mean survival time, dose: 100.0 mg/kg/injection, schedule: Q04DX002 (ip), vehicle: saline with Tween-80 86 % of control | endpoint: mean survival time, dose: 200.0 mg/kg/injection, schedule: Q04DX002 (ip), vehicle: saline with Tween-80 91 % of control

C=CCNC(=O)/C=C\C(=O)O
inactive: [10] 99 % of control | [11] 96 % of control

COC1CCC2(C)C(=CCC3C2CCC2(C)C(C(C)CCCC(C)C)CCC32)C1 (centres undefined)
inactive: endpoint: mean survival time, dose: 100.0 mg/kg/injection, schedule: Q01DX001 (ip), vehicle: Klucel (hydroxypropylcellulose) (HPC) 97 % of control | endpoint: mean survival time, dose: 200.0 mg/kg/injection, schedule: Q01DX001 (ip), vehicle: Klucel (hydroxypropylcellulose) (HPC) 94 % of control | endpoint: mean survival time, dose: 400.0 mg/kg/injection, schedule: Q01DX001 (ip), vehicle: Klucel (hydroxypropylcellulose) (HPC) 94 % of control

Cc1nccc2c(C)c3c(cc12)c1ccccc1n3CCC1CO1 (centres undefined)
inactive: endpoint: mean survival time, dose: 37.5 mg/kg/injection, schedule: Q04DX003 (ip), vehicle: water 118 % of control | endpoint: mean survival time, dose: 75.0 mg/kg/injection, schedule: Q04DX003 (ip), vehicle: water 122 % of control | endpoint: mean survival time, dose: 150.0 mg/kg/injection, schedule: Q04DX003 (ip), vehicle: water 118 % of control

O=C1/C(=C\c2ccc(OCc3ccccc3)c(OCc3ccccc3)c2)N2CCC1CC2
inactive: [10] 102 % of control | [11] 115 % of control | endpoint: mean survival time, dose: 400.0 mg/kg/injection, schedule: Q04DX002 (ip), vehicle: Klucel (hydroxypropylcellulose) (HPC) 105 % of control

COc1ccc2nc(/N=C(/N)N=C(N)N)sc2c1
inactive: endpoint: mean survival time, dose: 75.0 mg/kg/injection, schedule: Q01DX001 (ip), vehicle: carboxymethylcellulose (CMC) 100 % of control | endpoint: mean survival time, dose: 150.0 mg/kg/injection, schedule: Q01DX001 (ip), vehicle: carboxymethylcellulose (CMC) 97 % of control | endpoint: mean survival time, dose: 300.0 mg/kg/injection, schedule: Q01DX001 (ip), vehicle: carboxymethylcellulose (CMC) 103 % of control

CNC(=O)Oc1ccc2c(C)cc(=O)oc2c1
inactive: [12] 94 % of control | [13] 105 % of control

Cc1ccccc1N1CCN(c2ccccc2C)C1=C1N(c2ccccc2C)CCN1c1ccccc1C
inactive: endpoint: mean survival time, dose: 100.0 mg/kg/injection, schedule: Q04DX002 (ip), vehicle: DMSO 103 % of control | endpoint: mean survival time, dose: 200.0 mg/kg/injection, schedule: Q04DX002 (ip), vehicle: DMSO 98 % of control

N#CC(c1ccccc1)N1CCOCC1 (centres undefined)
inactive: [7] 91 % of control | [8] 96 % of control | [9] 95 % of control

CCCC(=O)Nc1ncnc2c1ncn2C1OC2COP(=O)(O)OC2C1OC(=O)CCC (centres undefined)
inactive: endpoint: mean survival time, dose: 12.5 mg/kg/injection, schedule: Q01DX009 (ip), vehicle: saline 105 % of control | endpoint: mean survival time, dose: 25.0 mg/kg/injection, schedule: Q01DX009 (ip), vehicle: saline 104 % of control | endpoint: mean survival time, dose: 50.0 mg/kg/injection, schedule: Q01DX009 (ip), vehicle: saline 102 % of control | endpoint: mean survival time, dose: 100.0 mg/kg/injection, schedule: Q01DX009 (ip), vehicle: saline 102 % of control | endpoint: mean survival time, dose: 200.0 mg/kg/injection, schedule: Q01DX009 (ip), vehicle: saline 100 % of control | endpoint: mean survival time, dose: 400.0 mg/kg/injection, schedule: Q01DX009 (ip), vehicle: saline 104 % of control | endpoint: median survival time, dose: 25.0 mg/kg/injection, schedule: Q01DX009 (ip), vehicle: saline 100 % of control | endpoint: median survival time, dose: 50.0 mg/kg/injection, schedule: Q01DX001 (ip), vehicle: saline 100 % of control | endpoint: median survival time, dose: 50.0 mg/kg/injection, schedule: Q01DX009 (ip), vehicle: saline 100 % of control | endpoint: median survival time, dose: 100.0 mg/kg/injection, schedule: Q01DX001 (ip), vehicle: saline 100 % of control | endpoint: median survival time, dose: 100.0 mg/kg/injection, schedule: Q01DX009 (ip), vehicle: saline 100 % of control | endpoint: median survival time, dose: 200.0 mg/kg/injection, schedule: Q01DX001 (ip), vehicle: saline 100 % of control | endpoint: median survival time, dose: 200.0 mg/kg/injection, schedule: Q01DX009 (ip), vehicle: saline 100 % of control | endpoint: median survival time, dose: 400.0 mg/kg/injection, schedule: Q01DX001 (ip), vehicle: saline 100 % of control | endpoint: median survival time, dose: 400.0 mg/kg/injection, schedule: Q01DX009 (ip), vehicle: saline 100 % of control

CC1(C)CC(=O)C(c2ccccc2[N+](=O)[O-])=C(O)C1
inactive: [4] 102 % of control | [5] 105 % of control | [6] 90 % of control | endpoint: mean survival time, dose: 400.0 mg/kg/injection, schedule: Q01DX001 (ip), vehicle: saline 94 % of control

CCCCCCCCCCC(CCCCCCCCCC)CC1CCCCC1
inactive: endpoint: mean survival time, dose: 100.0 mg/kg/injection, schedule: Q01DX001 (ip), vehicle: saline + alcohol 102 % of control | endpoint: mean survival time, dose: 200.0 mg/kg/injection, schedule: Q01DX001 (ip), vehicle: saline + alcohol 94 % of control | endpoint: mean survival time, dose: 400.0 mg/kg/injection, schedule: Q01DX001 (ip), vehicle: saline + alcohol 100 % of control

CC(C)(C(=O)O)C(=O)O
inactive: [5] 103 % of control | [6] 106 % of control

CCOC(=O)C1(c2ccccc2)CCCNC1=O (centres undefined)
inactive: [12] 107 % of control | [13] 89 % of control | endpoint: mean survival time, dose: 400.0 mg/kg/injection, schedule: Q04DX002 (ip), vehicle: saline 100 % of control

COc1ccc(C2CCC(=O)CC2(O)C(=O)O)cc1 (centres undefined)
inactive: endpoint: mean survival time, dose: 100.0 mg/kg/injection, schedule: Q01DX009 (ip), vehicle: Klucel (hydroxypropylcellulose) (HPC) 91 % of control | [7] 98 % of control | endpoint: mean survival time, dose: 200.0 mg/kg/injection, schedule: Q01DX009 (ip), vehicle: Klucel (hydroxypropylcellulose) (HPC) 88 % of control | [8] 102 % of control | endpoint: mean survival time, dose: 400.0 mg/kg/injection, schedule: Q01DX009 (ip), vehicle: Klucel (hydroxypropylcellulose) (HPC) 98 % of control | [9] 100 % of control

CCCCCCCCCCCCOC(=O)NCCCl
inactive: [1] 103 % of control | [2] 102 % of control | [3] 103 % of control
